Counter-ions that a name gives are not always drawn. Each block holds one compound with its values, some of them ahead of it.
Assays:
BON-1 = experiment: Neuroendocrine cell line growth inhibition, Cell Titer Glow, 72 hrs; type: cell-based; conditions: for GI50: BON-1, 72 hrs
Description: (§1) All cell lines were tested for mycoplasma and maintained at 37° C. in 5% CO2 atmosphere.
(§2) The data were normalized with respect to DMSO vehicle control to generate growth inhibition GI50 values.

H-720 = experiment: as above; type: cell-based; conditions: for GI50: H-720, 72 hrs
Description: as §1, §2

QGP-1 = experiment: as above; type: cell-based; conditions: for GI50: QGP-1, 72 hrs
Description: as §1, §2

HC-45 = experiment: as above; type: cell-based; conditions: for GI50: HC-45, 72 hrs
Description: as §1, §2

SNU-C1 = experiment: CRC cell line growth inhibition in vitro; type: cell-based; conditions: KRAS wt, BRAF wt
HT-29 = experiment: CRC cell line growth inhibition in vitro; type: cell-based; conditions: KRAS wt, BRAF V600E
AKT/mTOR pathway = experiment: Immunoblot of BON-1 cells, IPI-504, rapamycin or both; type: cell-based; conditions: BON-1, 6 or 24 hours, 1 μM IPI-504, 100 nM rapamycin or both
Description: BON-1 cells were incubated for either 6 hours or 24 hours with 1 uM of IPI-504, 100 nM rapamycin (Sigma) or the combination of both. 50 ug of cell lysate was immunoblotted for pAKT, total AKT, pS6, total S6, pERK 1/2 (Cell Signaling), IGF-1Rb, Hsp70, and b-actin (Santa Cruz). Image analysis and band quantization were performed with the Bio-Rad Versa Doc system. The expression of GADPH was used as a control for protein loading.
Since the PI3K/Akt/mTOR pathway is activated in neuroendocrine tumors, GEP-NET cells were treated with IPI-504 and drugs which inhibit the AKT/mTOR pathway to look for combination effects. In one experiment, BON-1 cells were incubated for 6 or 24 hours with 1 μM IPI-504, 100 nM rapamycin or the combination of both. Fifty μg of cell lysate was immunoblotted for pAKT, total AKT, pS6, IGF-1Rβ, Hsp70, and β-actin.

Colo 205 = experiment: CRC cell line growth inhibition in vitro; type: cell-based; conditions: KRAS wt, BRAF V600E
HT-55 = experiment: CRC cell line growth inhibition in vitro; type: cell-based; conditions: BRAF N581Y
Description: (§3) The GI-50 concentration is provided as a function of mutational status.

Colo 320 = experiment: CRC cell line growth inhibition in vitro; type: cell-based; conditions: KRAS wt, BRAF wt
Description: as §3

SW-48 = experiment: CRC cell line growth inhibition in vitro; type: cell-based; conditions: BRAF wt, EGFR G719S
Description: as §3

HCT-116 = experiment: CRC cell line growth inhibition in vitro; type: cell-based; conditions: KRAS G13D, BRAF wt
SW-480 = experiment: CRC cell line growth inhibition in vitro; type: cell-based; conditions: BRAF wt
[1] = tested on: squamous cell carcinoma (SCC); experiment: Clinical trial, response to IPI-504 by histology; type: in vivo, human
Text: This example describes the results from a clinical trial that assessed the efficacy of IPI-504 in patients with squamous cell carcinoma (SCC).
FIGS. 13A-13B depict waterfall plots showing responses to IPI-504 according to cancer subtypes analyzed by histology. The cancers examined were adenocarcinoma (shown as #1), bronchioloalveolar carcinoma (BAC) (shown as #2), large cell lung cancer (shown as #3), squamous cell carcinoma (shown as #4), unknown (shown as #5) and control (shown as #6). Each bar represents one patient. The y-axis of FIG. 13A represents % of tumor volume change from baseline.

NCI-H716 = experiment: CRC cell line growth inhibition in vitro; type: cell-based; conditions: KRAS wt, BRAF wt
Description: as §3

Colo 741 = experiment: CRC cell line growth inhibition in vitro; type: cell-based; conditions: KRAS wt, BRAF V600E
Colo 201 = experiment: CRC cell line growth inhibition in vitro; type: cell-based; conditions: KRAS wt, BRAF V600E
IR and IGF1R receptors = experiment: Human Phospho-Receptor Tyrosine Kinase array, BON-1 and H-720 lysates; type: cell-based; conditions: 1 μM overnight, BON-1 and H-720 cells
Text: BON-1 and H-720 cell lysates were hybridized to R&D Systems' Human Phospho-Receptor Tyrosine Kinase (RTK) Arrays (Catalog #ARY001) according to the manufacturer's instructions. In the array, each RTK is spotted in duplicate. Hybridization signals at the corners serve as controls.

[2] = tested on: tumors of smoker patients; experiment: Clinical trial, response to IPI-504 by smoking status; type: in vivo, human
Text: This example describes the results from a clinical trial that assessed the efficacy of IPI-504, alone or in combination with docetaxel, in smoker patients.
FIG. 27 depicts a waterfall plot showing responses to IPI-504 according to smoking status. The y-axis of FIG. 27 represents % of tumor volume change from baseline. Each bar represents one patient.

SW-620 = experiment: CRC cell line growth inhibition in vitro; type: cell-based; conditions: KRAS G12V, BRAF wt
Description: as §3

[3] = tested on: Colo201 (mutant BRAF) xenograft; experiment: Colo201 xenograft, 17-AG, Irinotecan and combination; type: in vivo, nude mice
Description: In the sixth set of studies, subcutaneous xenografts of Colo201 (mutant BRAF) were established by implantation of 10×10^6 cells into the right flank of nude mice. Once tumors reached approximately 100-150 mm^3, animals were randomized into treatment groups and administered either vehicle or a suspension of 50% 17-AG in HPMC-AS-HG dispersion in vehicle (1% hydroxyethylcellulose, 5% glycerol) (100 mg/kg, M-W-F, 3 weeks), Irinotecan (100 mg/kg, Q7D, 3 weeks) or the combination of a suspension of 50% 17-AG in HPMC-AS-HG dispersion in vehicle (1% hydroxyethylcellulose, 5% glycerol) (50 mg/kg, M-W-F) and Irinotecan (75 mg/kg, Q7D) for three weeks, and tumor volume measured twice per week (FIG. 26A; FIG. 26B is a zoomed-in section of FIG. 26A). At the end of the dosing period, animals were monitored for an additional 57 days to follow tumor growth delay. […] Similar results to those described above for the Colo201 model were also observed in two separate colorectal models (HCT-116 and DuDu1, […]) (Experiments 7 and 8).

Structure (SMILES): C=CCNc1c(O)cc2c(O)c1C[C@@H](C)C[C@H](OC)[C@H](O)[C@@H](C)/C=C(\C)[C@H](OC(N)=O)[C@@H](OC)/C=C\C=C(/C)C(=O)N2 [IPI-504, retaspimycin hydrochloride]
GI50 (BON-1): 49 nM | growth inhibition plateau (BON-1; BON-1, IPI-504 72 hours): 60% | GI50 (H-720): 930 nM | maximum growth inhibition (H-720; NCI-H720, IPI-504 72 hours): 100% | GI50 (QGP-1): 302 nM | growth inhibition plateau (QGP-1; QGP-1, IPI-504 72 hours): 60% | GI50 (HC-45): 705 nM | maximum growth inhibition (HC-45; HC-45, IPI-504 72 hours): 100% | GI50 (SNU-C1; Homo sapiens): 117 nM | GI50 (HT-29; Homo sapiens): 6 nM | effect on AKT and signalling downstream of mTOR (AKT/mTOR pathway): AKT degradation | GI50 (Colo 205; Homo sapiens): 8 nM | GI50 (HT-55; Homo sapiens, HT55, KRAS wt): 54 nM | GI50 (Colo 320; Homo sapiens): > 1600 nM | GI50 (SW-48; Homo sapiens, SW48, KRAS wt): 13 nM | GI50 (HCT-116; Homo sapiens): 88 nM | GI50 (SW-480; Homo sapiens, SW480, KRAS G12V): 42 nM | patients showing a partial response (PR) ([1]; out of 7 patients with SCC): 3 patients | objective response rate (ORR) ([1]; patients with SCC): 43% | GI50 (NCI-H716; Homo sapiens): 66 nM | GI50 (Colo 741; Homo sapiens): > 10000 nM | GI50 (Colo 201; Homo sapiens): > 10000 nM | constitutive phosphorylation of IR and IGF1R receptors (IR and IGF1R receptors): inhibited this constitutive phosphorylation | patients showing a partial response (PR) ([2]; out of 21 smoker patients): 6 patients | objective response rate (ORR) ([2]; smoker patients): 29% | GI50 (SW-620; Homo sapiens): 51 nM

GI50 (SNU-C1): 25 nM | GI50 (HT-29): 2 nM | GI50 (Colo 205): 7 nM | GI50 (Colo 320): > 1600 nM | GI50 (SW-48; KRAS wt): 7 nM | GI50 (HCT-116): 34 nM | GI50 (SW-480; KRAS G12V): 30 nM | GI50 (NCI-H716): 35 nM | GI50 (Colo 741): > 10000 nM | GI50 (Colo 201): > 10000 nM | GI50 (SW-620): 13 nM
Structure (SMILES): CO[C@H]1/C=C\C=C(/C)C(=O)NC2=CC(=O)C(N)=C(C[C@@H](C)C[C@H](OC)[C@H](O)[C@@H](C)/C=C(\C)[C@@H]1OC(N)=O)C2=O [IPI-493, 17-AG]
GI50 (BON-1): 19 nM | GI50 (H-720): 189 nM | GI50 (QGP-1): 10 nM | GI50 (HC-45): 88 nM | GI50 (HT-55; KRAS wt): 28 nM | complete responses (complete disappearance of a palpable tumor) ([3]; combination 50 + 75 mg/kg, single agents 100 mg/kg each): no complete responses | TGI while on drug ([3]; single agent, 17-AG 100 mg/kg M-W-F or Irinotecan 100 mg/kg Q7D, 3 weeks): ~88% | constitutive phosphorylation of IR and IGF1R receptors (IR and IGF1R receptors): inhibited this constitutive phosphorylation

From patent publication US20110118298A1, “COMPOSITIONS, KITS, AND METHODS FOR IDENTIFICATION, ASSESSMENT, PREVENTION, AND THERAPY OF CANCER” (INFINITY PHARMACEUTICALS, INC., priority 2009, published 2011)
